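A five-concentration, 48-hour dose response in 96-well plates underlies each endpoint, interpolated linearly between surrounding concentrations. TGI marks complete inhibition of growth.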
What was measured:
Test in all cases: NCI tumour cell line growth inhibition, 48 h
[1] = test system: 786-0 renal
[2] = test system: A498 renal
[3] = test system: A549 NSCLC
[4] = test system: ACHN renal
[5] = test system: CAKI-1 renal
[6] = test system: CCRF-CEM leukemia
[7] = test system: COLO 205 colon
[8] = test system: DLD-1 colon
[9] = test system: DMS 114 small cell lung
[10] = test system: DMS 273 small cell lung
[11] = test system: EKVX NSCLC
[12] = test system: HCC-2998 colon
[13] = test system: HCT-116 colon
[14] = test system: HCT-15 colon
[15] = test system: HL-60(TB) leukemia
[16] = test system: HOP-18 NSCLC
[17] = test system: HOP-62 NSCLC
[18] = test system: HOP-92 NSCLC
[19] = test system: HT29 colon
[20] = test system: IGROV1 ovarian
[21] = test system: K-562 leukemia
[22] = test system: KM12 colon
[23] = test system: KM20L2 colon
[24] = test system: LOX IMVI melanoma
[25] = test system: LXFL 529 NSCLC
[26] = test system: M14 melanoma
[27] = test system: M19-MEL melanoma
[28] = test system: MALME-3M melanoma
[29] = test system: MOLT-4 leukemia
[30] = test system: NCI-H23 lung
[31] = test system: NCI-H460 lung
[32] = test system: OVCAR-3 ovarian
[33] = test system: OVCAR-4 ovarian
[34] = test system: OVCAR-5 ovarian
[35] = test system: OVCAR-8 ovarian
[36] = test system: RXF 393 renal
[37] = test system: RXF-631 renal
[38] = test system: SF-268 CNS
[39] = test system: SF-295 CNS
[40] = test system: SF-539 CNS
[41] = test system: SK-MEL-2 melanoma
[42] = test system: SK-MEL-28 melanoma
[43] = test system: SK-MEL-5 melanoma
[44] = test system: SK-OV-3 ovarian
[45] = test system: SN12C renal
[46] = test system: SNB-19 CNS
[47] = test system: SNB-75 CNS
[48] = test system: SNB-78 CNS
[49] = test system: SR leukemia
[50] = test system: SW-620 colon
[51] = test system: TK-10 renal
[52] = test system: U251 CNS
[53] = test system: UACC-257 melanoma
[54] = test system: UACC-62 melanoma
[55] = test system: UO-31 renal
[56] = test system: XF 498 CNS
[57] = test system: NCI-H226 lung

Structure (SMILES): C=C1CC(C/C=C(\C)CC2CC(=C)C(=O)O2)OC1=O (stereo not given)
- TGI [1]: > 100 µM
- TGI [2]: > 100 µM
- TGI [3]: > 100 µM
- TGI [4]: > 100 µM
- TGI [5]: > 100 µM
- TGI [6]: > 100 µM
- TGI [7]: > 100 µM
- TGI [8]: > 100 µM
- TGI [9]: > 100 µM
- TGI [10]: > 100 µM
- TGI [11]: > 100 µM
- TGI [12]: > 100 µM
- TGI [13]: > 100 µM
- TGI [14]: > 100 µM
- TGI [15]: > 100 µM
- TGI [16]: > 100 µM
- TGI [17]: > 100 µM
- TGI [18]: > 100 µM
- TGI [19]: > 100 µM
- TGI [20]: > 100 µM
- TGI [21]: > 100 µM
- TGI [22]: > 100 µM
- TGI [23]: > 100 µM
- TGI [24]: > 100 µM
- TGI [25]: > 100 µM
- TGI [26]: > 100 µM
- TGI [27]: > 100 µM
- TGI [28]: > 100 µM
- TGI [29]: > 100 µM
- TGI [30]: > 100 µM
- TGI [31]: > 100 µM
- TGI [32]: > 100 µM
- TGI [33]: > 100 µM
- TGI [34]: > 100 µM
- TGI [35]: > 100 µM
- TGI [36]: > 100 µM
- TGI [37]: > 100 µM
- TGI [38]: > 100 µM
- TGI [39]: > 100 µM
- TGI [40]: > 100 µM
- TGI [41]: > 100 µM
- TGI [42]: > 100 µM
- TGI [43]: > 100 µM
- TGI [44]: > 100 µM
- TGI [45]: > 100 µM
- TGI [46]: > 100 µM
- TGI [47]: > 100 µM
- TGI [48]: > 100 µM
- TGI [49]: > 100 µM
- TGI [50]: > 100 µM
- TGI [51]: > 100 µM
- TGI [52]: > 100 µM
- TGI [53]: > 100 µM
- TGI [54]: > 100 µM
- TGI [55]: > 100 µM
- TGI [56]: > 100 µM

Structure (SMILES): N#Cc1ccccc1Nc1ccccc1S
- TGI [1]: 78.3 µM
- TGI [2]: > 100 µM
- TGI [3]: > 100 µM
- TGI [4]: > 100 µM
- TGI [5]: > 100 µM
- TGI [6]: 77.4 µM
- TGI [7]: > 100 µM
- TGI [8]: > 100 µM
- TGI [9]: 42.8 µM
- TGI [10]: > 100 µM
- TGI [11]: > 100 µM
- TGI [15]: > 100 µM
- TGI [16]: > 100 µM
- TGI [17]: > 100 µM
- TGI [18]: 80.3 µM
- TGI [19]: > 100 µM
- TGI [20]: 71.2 µM
- TGI [21]: > 100 µM
- TGI [22]: > 100 µM
- TGI [24]: 33.6 µM
- TGI [25]: 59.3 µM
- TGI [27]: > 100 µM
- TGI [28]: 80.3 µM
- TGI [29]: 33.1 µM
- TGI [57]: 43.9 µM
- TGI [30]: > 100 µM
- TGI [31]: > 100 µM
- TGI [33]: > 100 µM
- TGI [34]: 97.8 µM
- TGI [35]: 94 µM
- TGI [36]: 53 µM
- TGI [37]: > 100 µM
- TGI [38]: > 100 µM
- TGI [39]: 65.4 µM
- TGI [40]: 35.8 µM
- TGI [41]: > 100 µM
- TGI [42]: > 100 µM
- TGI [43]: 44.8 µM
- TGI [44]: > 100 µM
- TGI [45]: 97.1 µM
- TGI [46]: 60.5 µM
- TGI [48]: > 100 µM
- TGI [49]: > 100 µM
- TGI [50]: 47.1 µM
- TGI [51]: > 100 µM
- TGI [53]: > 100 µM
- TGI [54]: 37.8 µM
- TGI [55]: 72.4 µM
- TGI [56]: 40 µM

— PubChem BioAssay (NCI)
